# Data published in patent US7141590B2, “Pharmaceutical uses and synthesis of nicotinanilide-N-oxides” (UCB SA, priority 2000, dated 2006).
# T1: IL-8 type β receptor (IL-8Rβ) (Homo sapiens, UniProt P25025)
# T1 construct: purchased BioSignal, Montreal, Canada; host or cells: Sf9 cells
# T1 sequence (P25025 1-360): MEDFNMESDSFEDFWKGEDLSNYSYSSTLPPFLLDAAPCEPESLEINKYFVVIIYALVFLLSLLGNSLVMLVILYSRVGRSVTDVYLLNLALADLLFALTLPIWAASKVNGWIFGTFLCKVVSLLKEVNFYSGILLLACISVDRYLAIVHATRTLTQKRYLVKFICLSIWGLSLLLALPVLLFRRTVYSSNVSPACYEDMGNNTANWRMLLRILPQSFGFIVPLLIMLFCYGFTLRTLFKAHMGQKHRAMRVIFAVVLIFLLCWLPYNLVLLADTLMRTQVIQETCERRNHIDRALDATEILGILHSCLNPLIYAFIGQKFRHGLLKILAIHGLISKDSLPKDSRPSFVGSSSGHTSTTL
# Columns and labels:
# [1] = tested on: polymorphonuclear neutrophils (PMNs); experiment: GRO-α driven chemotaxis assay with PMNs (ChemoTx plate); type: cell-based; settings: 20 μM compound; 50 nM GRO-α, human PMNs
# Method: Peripheral blood from healthy human volunteers was collected into heparin, diluted in an equal volume of PBS, layered over Ficoll-Paque Plus (Pharmacia Biotech, Uppsala, Sweden), and spun at 400×g for 30 min. The PMN rich fraction was removed and residual erythrocytes were lysed with hypotonic saline. The polymorphonuclear neutrophils (PMNs) were washed once with assay buffer (Dulbecco's PBS containing divalent cations and 0.1% endotoxin-free BSA), and resuspended at 1E7 cells/mL in the same buffer. PMNs were loaded with 5 μM calcein AM (Molecular Probes, Eugene, Oreg.), washed twice and resuspended in assay buffer.
# Growth Regulatory Oncogene a (GRO-α) driven chemotaxis assays were performed according to the following protocol. […] Test compounds were dissolved in DMSO (100%) at 20 mM and diluted in assay buffer to the desired concentrations; final DMSO concentration was 0.2%. Neutrophil migration proceeded for 40 min at 37° C. in a humidified incubator with 5% CO2. After removing nonmigrated cells from the top of the plate, migrated cells were quantified by reading fluorescence on a Wallac Victor.
# The ratio of the positive to negative controls represents the chemotactic index of the cells. The results from this assay are reported in Tables 3–5, under the column headings IL-8 and GRO-α, and under the sub-column headings ChTx (for chemotaxis).
# [2] = target: T1, IL-8 type β receptor (IL-8Rβ); experiment: [125I] IL-8 binding assay (WGA-SPA beads, IL-8Rβ membranes); settings: 20 uM compound; [125I] IL-8, IL-8Rβ membranes
# Method: IL-8 (human recombinant) was obtained from NEN Life Science Products, Inc., Boston, Mass., with specific activity of 2200 Ci/mmol. Recombinant human IL-8 was obtained from R&D Systems, Minneapolis, Minn. IL-8 type β receptor membranes were prepared from […] co-expressed with Gαi3β1γ2 proteins by BioSignal™, Montreal, Canada. Wheat Germ Agglutinin Scintillation Proximity Assay Beads were obtained from Amersham Pharmacia Biotech, Piscataway, N.J. All assays were performed in a 96-well, solvent resistant, white PicoPlate obtained from Packard Instruments. […] The assay was initiated by the addition of WGA-SPA beads in 25 mM Hepes (pH 7.4) containing 2 mM CaCl2 and 1 mM MgCl2. After 4–6 hours of gentle agitation at room temperature, the plate was counted on the Packard TopCount liquid scintillation counter.
# [3] = target: T2, human chemokine CCR5 receptor (Homo sapiens, UniProt P51681); settings: CCR5 reference data; cited from earlier work
# T2 construct: host or cells: CHO-K1-p242-CCR5 cells
# T2 sequence (P51681 whole entry): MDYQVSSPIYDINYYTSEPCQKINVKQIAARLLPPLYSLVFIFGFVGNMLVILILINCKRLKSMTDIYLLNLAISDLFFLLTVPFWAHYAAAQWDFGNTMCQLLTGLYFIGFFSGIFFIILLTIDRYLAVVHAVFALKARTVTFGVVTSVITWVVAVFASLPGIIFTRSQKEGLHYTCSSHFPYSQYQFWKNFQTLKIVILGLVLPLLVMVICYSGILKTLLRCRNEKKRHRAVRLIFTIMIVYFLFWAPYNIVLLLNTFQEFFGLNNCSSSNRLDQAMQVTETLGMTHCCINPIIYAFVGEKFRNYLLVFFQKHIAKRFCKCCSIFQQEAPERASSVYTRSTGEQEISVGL
Molecule,"GRO-α ChTx @ 20 μM, % [1]","IL-8 Binding @ 20 uM, % [2]",IC50 [3],Ki [3],nH [3]
O=C(NC(c1ccccc1)c1ccccc1)c1ccc(Cl)[n+]([O-])c1,** (“**” for % values greater than 40),* (“*” for % values of less than or equal to 40),,,
O=C(Nc1ccccc1F)c1ccc(Cl)[n+]([O-])c1,** (“**” for % values greater than 40),* (“*” for % values of less than or equal to 40),,,
O=C(Nc1ccc(I)cc1)c1ccc(Cl)[n+]([O-])c1,** (“**” for % values greater than 40),* (“*” for % values of less than or equal to 40),,,
CC(C)(C)c1ccc(NC(=O)c2ccc(Cl)[n+]([O-])c2)cc1,** (“**” for % values greater than 40),* (“*” for % values of less than or equal to 40),,,
CCOc1cccc(NC(=O)c2ccc(Cl)[n+]([O-])c2)c1,C*,* (“*” for % values of less than or equal to 40),,,
NC(=O)c1cccc(NC(=O)c2ccc(Cl)[n+]([O-])c2)c1,* (“*” for % values of less than or equal to 40),* (“*” for % values of less than or equal to 40),,,
O=C(NCc1ccccc1)c1ccc(Cl)[n+]([O-])c1,* (“*” for % values of less than or equal to 40),* (“*” for % values of less than or equal to 40),,,
O=C(NCc1ccc(F)cc1)c1ccc(Cl)[n+]([O-])c1,* (“*” for % values of less than or equal to 40),* (“*” for % values of less than or equal to 40),,,
O=C(NC1CCCC1)c1ccc(Cl)[n+]([O-])c1,* (“*” for % values of less than or equal to 40),* (“*” for % values of less than or equal to 40),,,
O=C(NCc1ccco1)c1ccc(Cl)[n+]([O-])c1,* (“*” for % values of less than or equal to 40),* (“*” for % values of less than or equal to 40),,,
"O=C(Nc1ccc(F)cc1)c1ccc(Cl)[n+]([O-])c1 [Cl—, 6-Chloro-N-(4-fluoro-phenyl)-1-oxy-nicotinamide]",** (“**” for % values greater than 40),**(1) (“**” for % values greater than 40),,,
CS(=O)(=O)c1ccc(C(=O)Nc2ccc(F)cc2)c[n+]1[O-] [drawing 44],** (“**” for % values greater than 40),** (“**” for % values greater than 40),,,
O=C(Nc1ccc(F)cc1)c1ccc(S(=O)(=O)c2ccccc2)[n+]([O-])c1 [drawing 47],** (“**” for % values greater than 40),** (“**” for % values greater than 40),,,
CCS(=O)(=O)c1ccc(C(=O)Nc2ccc(F)cc2)c[n+]1[O-] [drawing 49],** (“**” for % values greater than 40),** (“**” for % values greater than 40),,,
CCCS(=O)(=O)c1ccc(C(=O)Nc2ccc(F)cc2)c[n+]1[O-] [drawing 51],** (“**” for % values greater than 40),** (“**” for % values greater than 40),,,
O=C(Nc1ccc(F)cc1)c1ccc(S(=O)(=O)Cc2ccccc2)[n+]([O-])c1 [drawing 52],** (“**” for % values greater than 40),** (“**” for % values greater than 40),,,
O=C(Nc1ccc(F)cc1)c1ccc(S(=O)(=O)C2CCCC2)[n+]([O-])c1 [drawing 53],** (“**” for % values greater than 40),** (“**” for % values greater than 40),,,
O=C(Nc1ccc(F)c(F)c1)c1ccc(Cl)[n+]([O-])c1 [drawing 70],** (“**” for % values greater than 40),* (“*” for % values of less than or equal to 40),,,
MIP-1α: microphage inflammatory protein,,,0.039 nM,0.03 nM,0.8
RANTES: regulated on activation of normal T-cell expressed and secreted,,,0.012 nM,0.0093 nM,0.9
"MIP-1β: microphage inflammatory protein; standard reference agent used in CCR5 assay (protein, UniProt P13236 24-92, looked up, ends and bridges not checked) C-C motif chemokine 4: APMGSDPPTACCFSYTARKLPRNFVVDYYETSSLCSQPAVVFQTKRSKQVCADPSESWVQEYVYDLELN",,,0.074 nM,0.057 nM,0.9
